{"source": "patent US20090197975A1", "about": "“COMPOSITIONS FORMULATED FOR SOLVENT-REGULATED DRUG RELEASE” (MIV Therapeutics Inc., priority 2005, published 2009)", "test": "Paclitaxel composition droplets immersed in PBS for 72 hours (FIG. 3)", "format": "physicochemical", "conditions": "72 hours in PBS; DENA and DMSO present as solubilizing agents", "from_the_text": "FIG. 3 is two photographs comparing three drug compositions formulated in accordance with the invention. Each composition comprises the drug paclitaxel formulated with different compositional ratios of solvents, namely a first solvent comprising a mixture of 70% DENA and 30% DMSO and a second solvent comprising 70% castor oil and 30% soybean oil. The left-hand composition comprises 70% of the first solvent and 30% of the second solvent; the middle composition comprises 60% of the first solvent and 40% of the second solvent; and the right-hand composition comprises 50% of the first solvent and 50% of the second solvent.\nIn the example of FIG. 3, the release profile of a composition 10 comprising the water-insoluble lipophilic drug paclitaxel was investigated. Paclitaxel is a well-known chemotherapy agent. FIG. 3 compares three drug compositions comprising paclitaxel formulated with different compositional ratios of first and second solvents 14, 18. The concentration of paclitaxel is maintained at 20 weight percent in first solvent 14. In this example, first solvent 14 comprises a mixture of 70% DENA and 30% DMSO and second solvent 18 comprises 70% castor oil and 30% soybean oil. […]"}
{"smiles": "CC(=O)O[C@H]1C(=O)[C@@]2(C)[C@H]([C@H](OC(=O)c3ccccc3)[C@]3(O)C[C@H](OC(=O)[C@H](O)[C@@H](NC(=O)c4ccccc4)c4ccccc4)C(C)=C1C3(C)C)[C@]1(OC(C)=O)CO[C@@H]1C[C@@H]2O", "note": "[paclitaxel]", "values": [{"measurement": "paclitaxel precipitate visually detected in the PBS", "value": "No white precipitate"}]}
